Measured values as given in a melting point compilation (Tetko et al.; mined from patent text by program, amines drawn as free bases though some values may be those of a salt).

| Structure (SMILES) | melting point |
| --- | --- |
| NC(=O)[C@H](O)[C@@H](O)[C@H](O)[C@H](O)CO | 109 to 111 °C |
| CN(C(=O)c1nn(-c2ccc(Cl)cc2Cl)c(-c2ccc(Cl)cc2)c1O)N1CCCCC1 | 118 °C |
| N#CC1(CCNC(=O)C(Cl)Cl)CC1 | 97 to 100 °C |
| CC(=O)c1c(C)nc2c(OCc3c(Cl)ccc(S(=O)(=O)N4CCC[C@H]4C(=O)NCCCNC(=O)c4ccc(C#N)cc4)c3Cl)cccn12 | 100 to 102 °C |
| CC(C)(C)OC(=O)C[C@H](NC(=O)CNC(=O)c1csc(NC(=O)NCc2ccccn2)n1)C(=O)NCc1ccccn1 | 112 °C |
| C=CCNc1c(C#N)cnc2cn[nH]c12 | 249 to 252 °C |
| CS(=O)(=O)NC(=O)COc1ccc(CCCS(=O)(=O)c2ccc(Cl)cc2)cc1NC(=O)c1cccc(OCc2nc3ccccc3s2)c1 | 153 °C |
| O=C1NCCNN1c1cc(C(F)(F)F)cc(Cl)n1 | 191 to 192 °C |
| CC1(C)CN(CCO)C(=O)C(C)(C)N1 | 91 to 93 °C |
| Cc1cc(C)cc(-c2nc(N)sc2-c2ccncc2)c1 | 242 to 244 °C |
| COc1cc2ncnc(N3CCc4ccc(C(C)C)cc43)c2cc1OC | 128 to 129 °C |
| Cc1sc(Br)c(C)c1C(=O)O | 183 to 184 °C |
| CC(=O)OCC1CC(OC(C)=O)C(n2cc(C(I)=CI)c(=O)[nH]c2=O)O1 (stereo unspecified) | 75 to 77 °C |
| NC1=NS(=O)N=C1NCCCN1c2ccccc2CCc2ccccc21 (stereo unspecified) | 227 to 230 °C |
| O=S1(=O)c2cccc3cccc(c23)N1CCCN1CC=C(c2c[nH]c3ccc(F)cc23)CC1 | 224 °C |
| CCCCOc1ccc(S(=O)(=O)NC(=NO)Nc2ccc(Cl)cc2)cc1 | 175 to 176 °C |
| CCCc1ccc(NC(=O)c2cccnc2NCc2ccc(OC)nc2)cc1C(F)(F)F | 51 to 61 °C |
| O=C(COc1ccc(Cl)cc1)N1Cc2cccn2Cc2ccccc21 | 120 to 122 °C |
| O=C(O)c1cccc(-c2coc3c(O)c(O)ccc3c2=O)c1 | 313 to 314 °C |
| COc1cccc(NC(=O)CN2C(=O)c3ccccc3C2=O)c1 | 171 °C |
| CCOc1c(OC)cc(C(=O)O)c(-c2c(C(=O)O)cc(OC)c3c2OCO3)c1OCC | 262 to 263 °C |
| CCNS(=O)(=O)c1ccc(NC(C)=O)cc1 | 90 to 91 °C |
| COc1cc2c(c3c1OC(C)(C)C3)C(c1cccc(-c3ccc(NC(=O)CNC(C)=O)cc3)c1)=NC(C)(C)C2 | 218 to 221 °C |
| CC(C)(C)NC(=O)CN1C(=O)C(N)CC(c2ccc(Cl)c(Cl)c2)c2ccccc21 (stereo unspecified) | 140 to 150 °C |
| CCOC(=O)c1c(-c2ccc(Cl)c(Cl)c2)csc1N1C(=O)c2ccccc2C1=O | 155 to 156 °C |
| CC(=O)Nc1ccc2c(c1)OC(C)(C)C=C2 | 80 to 81 °C |

| Structure (SMILES) | melting point |
| --- | --- |
| COCCOc1cc([N+](=O)[O-])c2[nH]c(C3=NCC(C(OC)OC)S3)cc2c1 (stereo unspecified) | 100 to 101 °C |
| CN1C(=O)C2(COc3cc4c(cc32)OCCO4)c2c(N3CCOCC3)cccc21 (stereo unspecified) | 246 to 249 °C |
| O=CC(=O)c1ccc(Oc2cccc(C(F)(F)F)c2)cc1 | 73 to 80 °C |
| O=[N+]([O-])c1cnn(-c2c(Cl)cc(C(F)(F)F)cc2Cl)c1Br | 96 °C |
| Cc1c(-c2ccccc2)n(Cc2ccccc2)c2ccc(-c3ccc(OCC(=O)O)cc3)cc12 | 174 to 175 °C |
| CCC(=O)Nc1csc(Br)n1 | 122 to 125 °C |
| CC(C)Oc1cc(-n2c(=O)c(F)c(CF)n(C)c2=O)c(F)cc1Cl | 79 to 81 °C |
| CSC1=Nc2ccccc2Cn2nnnc21 | 105 to 108 °C |
| CC(CCCNC(=O)CCCCCBr)C(F)(F)F (stereo unspecified) | 96 to 98 °C |
| Cc1ccc(C(C#N)Nc2ccc(S(C)(=O)=O)cc2)cc1 (stereo unspecified) | 158 to 160 °C |
| Nc1ccccc1SCC(C(=O)O)c1ccc(C(F)(F)F)cc1 (stereo unspecified) | 138 °C |
| c1ccc(C(c2ccc3[nH]cnc3c2)n2ccnc2)cc1 (stereo unspecified) | 186 °C |
| CCOC(=O)C(Br)C(=O)Nc1ccc(Cl)cc1 (stereo unspecified) | 117 to 119 °C |
| COC(=O)Cc1ccc2c(c1)CC(NS(=O)(=O)c1ccc(Cl)cc1)C2 (stereo unspecified) | 80 to 82 °C |
| COC(=O)C(=CC(c1ccccc1)c1ccccc1)C(=O)OC | 120 to 122 °C |
| COc1ccc(CSc2cnc(O)nc2O)cc1 | 277 °C |
| Cc1nn(CC(O)c2ccc(Cl)cc2)c(=O)n1-c1ccc(N2CCN(c3ncc(O)cn3)CC2)cc1 (stereo unspecified) | 244 °C |
| CCN1CCC(c2ccc(Br)cc2)CC1 | 33 to 34 °C |
| N#Cc1ccc(-c2ccc(-c3ccc(C#N)cc3)o2)cc1 | 294 to 295 °C |
| CC1(C)CC=C(Nc2ccccc2Cl)C(=O)C1 | 150 to 152 °C |
| CN(C)CCc1[nH]c2ccccc2c1CSc1ccccc1 | 97 to 99 °C |
| O=[N+]([O-])c1ccc(OCCN2CC=C(c3ccc(F)cc3)CC2)cc1 | 104 to 107 °C |
| CC(=O)Nc1ccc(-c2cc(C(=O)c3ccc(Cl)cc3Cl)sc2N2CCOCC2)cc1 | 145 °C |
| O=C(O)c1cc(-n2c(-c3ccc(Cl)c(Cl)c3)cc3c2CCCC3)ccc1O | 210 to 211 °C |
| COc1ccc(NC(=S)Nc2ccc(NNC=O)cc2)cc1 | 198 to 200 °C |
